Source: PubChem BioAssay (NCI)
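Each compound was tested at five concentrations against cells in 96-well plates for 48 hours. GI50: concentration for 50% inhibition of growth. The concentration for full growth arrest is given as TGI.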

Legend:
Test in all cases: NCI tumour cell line growth inhibition, 48 h
[1] = test system: NCI-H23 lung
[2] = test system: SF-268 CNS
[3] = test system: LOX IMVI melanoma
[4] = test system: HCC-2998 colon
[5] = test system: SK-MEL-5 melanoma
[6] = test system: MDA-MB-435
[7] = test system: SK-OV-3 ovarian
[8] = test system: U251 CNS
[9] = test system: TK-10 renal
[10] = test system: MDA-N
[11] = test system: UO-31 renal
[12] = test system: NCI-H226 lung
[13] = test system: SNB-19 CNS
[14] = test system: IGROV1 ovarian
[15] = test system: BT-549 breast
[16] = test system: T-47D breast
[17] = test system: NCI/ADR-RES ovarian
[18] = test system: CCRF-CEM leukemia
[19] = test system: HOP-92 NSCLC
[20] = test system: OVCAR-5 ovarian
[21] = test system: SW-620 colon
[22] = test system: KM12 colon
[23] = test system: HT29 colon
[24] = test system: UACC-257 melanoma
[25] = test system: M14 melanoma
[26] = test system: SN12C renal
[27] = test system: COLO 205 colon
[28] = test system: K-562 leukemia
[29] = test system: HCT-15 colon
[30] = test system: SF-295 CNS
[31] = test system: MCF7 breast
[32] = test system: RPMI-8226 leukemia
[33] = test system: PC-3 prostate
[34] = test system: A498 renal
[35] = test system: HL-60(TB) leukemia
[36] = test system: NCI-H460 lung
[37] = test system: SK-MEL-2 melanoma
[38] = test system: SR leukemia
[39] = test system: HCT-116 colon
[40] = test system: DU-145 prostate
[41] = test system: EKVX NSCLC
[42] = test system: OVCAR-8 ovarian
[43] = test system: MOLT-4 leukemia
[44] = test system: OVCAR-4 ovarian
[45] = test system: SK-MEL-28 melanoma
[46] = test system: A549 NSCLC
[47] = test system: 786-0 renal
[48] = test system: RXF 393 renal
[49] = test system: UACC-62 melanoma
[50] = test system: HS 578T breast
[51] = test system: ACHN renal
[52] = test system: HOP-62 NSCLC
[53] = test system: MDA-MB-231 breast
[54] = test system: SNB-75 CNS
[55] = test system: SF-539 CNS
[56] = test system: NCI-H522 lung
[57] = test system: MALME-3M melanoma
[58] = test system: OVCAR-3 ovarian

## C1=C\SS/C=C\SS/1
[1]
  TGI: > 100 µM
[2]
  TGI: > 100 µM
[3]
  TGI: > 100 µM
[4]
  TGI: > 100 µM
[5]
  TGI: > 100 µM
[6]
  TGI: > 100 µM
[7]
  TGI: > 100 µM
[8]
  TGI: > 100 µM
[9]
  TGI: > 100 µM
[10]
  TGI: > 100 µM
[11]
  TGI: > 100 µM
[12]
  TGI: > 100 µM
[13]
  TGI: > 100 µM
[14]
  TGI: 62.5 µM
[15]
  TGI: > 100 µM
[16]
  TGI: > 100 µM
[17]
  TGI: > 100 µM
[18]
  TGI: 7.09 µM
[19]
  TGI: 97.3 µM
[20]
  TGI: > 100 µM
[21]
  TGI: > 100 µM
[22]
  TGI: > 100 µM
[23]
  TGI: 35.6 µM
[24]
  TGI: > 100 µM
[25]
  TGI: > 100 µM
[26]
  TGI: > 100 µM
[27]
  TGI: > 100 µM
[28]
  TGI: 85.2 µM
[29]
  TGI: 34 µM
[30]
  TGI: > 100 µM
[31]
  TGI: 36.2 µM
[32]
  TGI: 71.8 µM
[33]
  TGI: > 100 µM
[34]
  TGI: > 100 µM
[35]
  TGI: 35.4 µM
[36]
  TGI: 80 µM
[37]
  TGI: > 100 µM
[38]
  TGI: > 100 µM
[39]
  TGI: > 100 µM
[40]
  TGI: > 100 µM
[41]
  TGI: > 100 µM
[42]
  TGI: 49.8 µM
[43]
  TGI: 78.7 µM
[44]
  TGI: > 100 µM
[45]
  TGI: > 100 µM
[46]
  TGI: > 100 µM
[47]
  TGI: 35.8 µM
[48]
  TGI: 88.1 µM
[49]
  TGI: > 100 µM
[50]
  TGI: > 100 µM
[51]
  TGI: > 100 µM
[52]
  TGI: > 100 µM

## Nc1ccc(/C=C/C(=O)NCc2cc3cc(-c4ccc(C(=O)N5CCC(F)(F)CC5)cc4)cc(-c4ccc(F)cc4)c3o2)cn1
[1]
  GI50: > 100 µM
  TGI: > 100 µM
[2]
  GI50: > 100 µM
  TGI: > 100 µM
[53]
  GI50: 15.1 µM
  TGI: > 100 µM
[3]
  GI50: > 77.5 µM
  TGI: > 100 µM
[4]
  GI50: 10.5 µM
  TGI: > 100 µM
[5]
  GI50: 14.2 µM
  TGI: > 100 µM
[6]
  GI50: 752 nM
  TGI: > 100 µM
[7]
  GI50: > 100 µM
  TGI: > 100 µM
[8]
  GI50: 1160 nM
  TGI: > 100 µM
[9]
  GI50: > 100 µM
  TGI: > 100 µM
[11]
  GI50: > 47.6 µM
  TGI: > 100 µM
[12]
  GI50: > 100 µM
  TGI: > 100 µM
[13]
  GI50: 3.96 µM
  TGI: > 100 µM
[14]
  GI50: > 44.7 µM
  TGI: > 100 µM
[15]
  GI50: 5.95 µM
  TGI: > 100 µM
[16]
  GI50: 784 nM
  TGI: > 100 µM
[17]
  GI50: 4.91 µM
  TGI: > 100 µM
[18]
  GI50: 83 nM
  TGI: > 100 µM
[19]
  GI50: 28.3 µM
  TGI: > 100 µM
[20]
  GI50: 8.43 µM
  TGI: > 100 µM
[21]
  GI50: 57.1 nM
  TGI: > 100 µM
[22]
  GI50: 1210 nM
  TGI: > 100 µM
[23]
  GI50: 1890 nM
  TGI: > 100 µM
[24]
  GI50: > 100 µM
  TGI: > 100 µM
[25]
  GI50: 459 nM
  TGI: > 55.8 µM
[26]
  GI50: 58.9 nM
  TGI: > 100 µM
[54]
  GI50: > 100 µM
  TGI: > 100 µM
[55]
  GI50: 118 nM
  TGI: > 100 µM
[56]
  GI50: 773 nM
  TGI: > 100 µM
[57]
  GI50: > 100 µM
  TGI: > 100 µM
[27]
  GI50: 327 nM
  TGI: > 62.9 µM
[28]
  GI50: 356 nM
  TGI: > 100 µM
[29]
  GI50: 679 nM
  TGI: > 100 µM
[30]
  TGI: > 100 µM
[31]
  GI50: 14.4 µM
  TGI: > 100 µM
[32]
  GI50: 563 nM
  TGI: > 100 µM
[33]
  GI50: 534 nM
  TGI: > 100 µM
[34]
  GI50: > 100 µM
  TGI: > 100 µM
[35]
  GI50: 5.61 µM
  TGI: > 100 µM
[36]
  GI50: 10.9 µM
  TGI: > 100 µM
[37]
  GI50: > 100 µM
  TGI: > 100 µM
[38]
  GI50: 12.9 µM
  TGI: > 100 µM
[39]
  GI50: 49.1 nM
  TGI: > 100 µM
[40]
  GI50: 4.15 µM
  TGI: > 100 µM
[41]
  GI50: > 100 µM
  TGI: > 100 µM
[42]
  GI50: 40.4 nM
  TGI: > 100 µM
[43]
  GI50: 3.46 µM
  TGI: > 100 µM
[44]
  GI50: > 71.5 µM
  TGI: > 100 µM
[45]
  GI50: > 100 µM
  TGI: > 100 µM
[46]
  GI50: > 100 µM
  TGI: > 100 µM
[47]
  GI50: 40.3 µM
  TGI: > 100 µM
[48]
  GI50: 37.8 µM
  TGI: > 100 µM
[49]
  GI50: > 100 µM
  TGI: > 100 µM
[50]
  GI50: > 100 µM
  TGI: > 100 µM
[58]
  GI50: > 39.1 µM
  TGI: > 100 µM
[51]
  GI50: 83.9 µM
  TGI: > 100 µM
[52]
  GI50: > 59.3 µM
  TGI: > 100 µM
